In ChEMBL document CHEMBL4049384, “Synthesis and evaluation of an injectable everolimus prodrug” (Bioorg Med Chem Lett, 2017):
Values after ≈ are worked out from the molar mass of the structure shown.

Columns and labels:
OS-RC-2 [1] = assay: Antitumor activity against human OS-RC2 cells xenografted in nude mouse assessed as reduction in tumor volume at 6 mg/kg administered three times a week through oral gavage measured on day 15 relative to control; type: functional
Mus musculus [2] = assay: Toxicity in nude mouse xenografted with human OS-RC2 cells assessed as body weight loss at 6 mg/kg administered three times a week through oral gavage and measured on Day 22 (reference value: 23.1 %); type: organism-based; settings: in vivo
OS-RC-2 [3] = assay: Antitumor activity against human OS-RC2 cells xenografted in nude mouse assessed as reduction in tumor volume at 6 mg/kg administered three times a week through oral gavage measured on day 19 relative to control; type: functional
Mus musculus [4] = assay: Toxicity in nude mouse xenografted with human OS-RC-2 cells assessed as body weight at 6 mg/kg administered three times a week through oral gavage measured on day 1 (reference value: 20.4 +/- 0.33 g); type: organism-based; settings: in vivo
Mus musculus [5] = assay: Toxicity in nude mouse xenografted with human OS-RC2 cells assessed as body weight loss at 6 mg/kg administered three times a week through oral gavage and measured on Day 19 (reference value: 23.1 %); type: organism-based; settings: in vivo
[6] = Drug uptake in Sprague-Dawley rat blood at 10 mg/kg, po after 4 hrs by HPLC method; type: ADME, organism-based; settings: read-out: Drug uptake
OS-RC-2 [7] = assay: Antitumor activity against human OS-RC2 cells xenografted in nude mouse assessed as reduction in tumor volume at 6 mg/kg administered three times a week through oral gavage measured on day 8 relative to control; type: functional
OS-RC-2 [8] = assay: Antitumor activity against human OS-RC2 cells xenografted in nude mouse assessed as reduction in tumor volume at 6 mg/kg administered three times a week through oral gavage measured on day 29 relative to control; type: functional
DU-145 = assay: Antiproliferative activity against human DU145 cells after 48 hrs by MTT assay; type: functional, cell-based; settings: DU-145, 48 h
[9] = Drug uptake in Sprague-Dawley rat blood at 10 mg/kg, po after 2 hrs by HPLC method; type: ADME, organism-based; settings: read-out: Drug uptake
[10] = Drug uptake in Sprague-Dawley rat blood at 10 mg/kg, po after 0.5 hrs by HPLC method; type: ADME, organism-based; settings: read-out: Drug uptake
[11] = Half life in Sprague-Dawley rat at 10 mg/kg, po; type: ADME, organism-based; settings: in vivo
Mus musculus [12] = assay: Toxicity in nude mouse xenografted with human OS-RC-2 cells assessed as body weight loss at 6 mg/kg administered three times a week through oral gavage measured after 32 days (reference value: 33%); type: organism-based; settings: in vivo, 768 h
Mus musculus [13] = assay: Toxicity in nude mouse xenografted with human OS-RC2 cells assessed as body weight loss at 6 mg/kg administered three times a week through oral gavage and measured on Day 26 (reference value: 28.2 %); type: organism-based; settings: in vivo
[14] = AUC (0 to t) in Sprague-Dawley rat at 10 mg/kg, po; type: ADME, organism-based; settings: in vivo
[15] = Solubility of the compound in water; type: physicochemical
[16] = Drug uptake in Sprague-Dawley rat blood at 10 mg/kg, po after 24 hrs by HPLC method; type: ADME, organism-based; settings: read-out: Drug uptake
[17] = AUC (0 to infinity) in Sprague-Dawley rat at 10 mg/kg, po; type: ADME, organism-based; parameters: dose 10 mg/kg, route oral, time infinity; settings: in vivo
[18] = Drug uptake in Sprague-Dawley rat blood at 10 mg/kg, po after 1.5 hrs by HPLC method; type: ADME, organism-based; settings: read-out: Drug uptake
OS-RC-2 [19] = assay: Antitumor activity against human OS-RC2 cells xenografted in nude mouse assessed as reduction in tumor volume at 6 mg/kg administered three times a week through oral gavage measured on day 32 relative to control; type: functional
Mus musculus [20] = assay: Toxicity in nude mouse xenografted with human OS-RC2 cells assessed as body weight loss at 6 mg/kg administered three times a week through oral gavage and measured on Day 8 (reference value: 8.5 %); type: organism-based; settings: in vivo
[21] = Drug uptake in Sprague-Dawley rat blood at 10 mg/kg, po after 8 hrs by HPLC method; type: ADME, organism-based; settings: read-out: Drug uptake
OS-RC-2 [22] = assay: Antitumor activity against human OS-RC2 cells xenografted in nude mouse assessed as reduction in tumor volume at 6 mg/kg administered three times a week through oral gavage measured on day 12 relative to control; type: functional
[23] = Drug uptake in Sprague-Dawley rat blood at 10 mg/kg, po after 3 hrs by HPLC method; type: ADME, organism-based; settings: read-out: Drug uptake
Mus musculus [24] = assay: Toxicity in nude mouse xenografted with human OS-RC-2 cells assessed as death at 6 mg/kg administered three times a week through oral gavage after 32 days; type: organism-based; settings: in vivo, 768 h
PC-3 = assay: Antiproliferative activity against human PC3 cells after 48 hrs by MTT assay; type: functional, cell-based; settings: PC-3, 48 h
Mus musculus [25] = assay: Toxicity in nude mouse xenografted with human OS-RC2 cells assessed as body weight loss at 6 mg/kg administered three times a week through oral gavage and measured on day 15 (reference value: 20.2 %); type: organism-based; settings: in vivo
[26] = Drug uptake in Sprague-Dawley rat blood at 10 mg/kg, po after 1 hr by HPLC method; type: ADME, organism-based; settings: read-out: Drug uptake
HepG2 = assay: Antiproliferative activity against human HepG2 cells after 48 hrs by MTT assay; type: functional, cell-based; settings: HepG2, 48 h
Mus musculus [27] = assay: Toxicity in nude mouse xenografted with human OS-RC2 cells assessed as body weight loss at 6 mg/kg administered three times a week through oral gavage and measured on Day 29 (reference value: 31.2 %); type: organism-based; settings: in vivo
OS-RC-2 [28] = assay: Antitumor activity against human OS-RC2 cells xenografted in nude mouse assessed as tumor volume at 6 mg/kg administered three times a week through oral gavage measured on day 1 (reference value: 167.51 +/- 17.09 mm3); type: functional
[29] = Drug uptake in Sprague-Dawley rat blood at 10 mg/kg, po after 0.25 hrs by HPLC method; type: ADME, organism-based; settings: read-out: Drug uptake
[30] = Cmax in Sprague-Dawley rat at 10 mg/kg, po; type: ADME, organism-based; parameters: dose 10 mg/kg, route oral; settings: in vivo
Mus musculus [31] = assay: Toxicity in nude mouse xenografted with human OS-RC2 cells assessed as body weight loss at 6 mg/kg administered three times a week through oral gavage and measured on Day 12 (reference value: 15 %); type: organism-based; settings: in vivo
OS-RC-2 [32] = assay: Antitumor activity against human OS-RC2 cells xenografted in nude mouse assessed as reduction in tumor volume at 6 mg/kg administered three times a week through oral gavage measured on day 22 relative to control; type: functional
[33] = Drug uptake in Sprague-Dawley rat blood at 10 mg/kg, po after 6 hrs by HPLC method; type: ADME, organism-based; settings: read-out: Drug uptake
[34] = Tmax in Sprague-Dawley rat at 10 mg/kg, po; type: ADME, organism-based; settings: in vivo
Mus musculus [35] = assay: Toxicity in nude mouse xenografted with human OS-RC-2 cells assessed as body weight loss at 6 mg/kg administered three times a week through oral gavage measured on day 5 (reference value: 1.9%); type: organism-based; settings: in vivo
OS-RC-2 [36] = assay: Antitumor activity against human OS-RC2 cells xenografted in nude mouse assessed as tumor weight at 6 mg/kg administered three times a week through oral gavage measured after 32 days (reference value: 0.68 +/- 0.06 g); type: functional
MDA-MB-435 = assay: Antiproliferative activity against human MDA-MB-435 cells after 48 hrs by MTT assay; type: functional, cell-based; settings: MDA-MB-435, 48 h
OS-RC-2 [37] = assay: Antitumor activity against human OS-RC2 cells xenografted in nude mouse assessed as tumor growth inhibition at 6 mg/kg administered three times a week through oral gavage measured after 32 days relative to control; type: functional; settings: OS-RC-2, po, 768 h, read-out: TGI
OS-RC-2 [38] = assay: Antitumor activity against human OS-RC2 cells xenografted in nude mouse assessed as reduction in tumor volume at 6 mg/kg administered three times a week through oral gavage measured on day 5 relative to control; type: functional
OS-RC-2 [39] = assay: Antitumor activity against human OS-RC2 cells xenografted in nude mouse assessed as reduction in tumor volume at 6 mg/kg administered three times a week through oral gavage measured on day 26 relative to control; type: functional
NCI-H460 = assay: Antiproliferative activity against human NCI-H460 cells after 48 hrs by MTT assay; type: functional, cell-based; settings: NCI-H460, 48 h

Compound `CO[C@H]1C[C@@H]2CC[C@@H](C)[C@@](O)(O2)C(=O)C(=O)N2CCCC[C@H]2C(=O)O[C@H]([C@H](C)C[C@@H]2CC[C@@H](OCCO)[C@H](OC)C2)CC(=O)[C@H](C)/C=C(\C)[C@@H](O)[C@@H](OC)C(=O)[C@H](C)C[C@H](C)\C=C/C=C/C=C/1C` has a T/C (OS-RC-2 [1]) of 0.66%, an Activity (Mus musculus [2]) of 9.7% and a T/C (OS-RC-2 [3]) of 0.71%. The Activity (Mus musculus [4]) was 20.94 g, the Activity (Mus musculus [5]) was 9.7% and the concentration at 4 h [6] was 61.4 ng/mL. For the same compound, the T/C (OS-RC-2 [7]) was 76%, the T/C (OS-RC-2 [8]) was 0.72% and the IC50 (DU-145) was 57.3 µM. For the same compound, the concentration at 2 h [9] was 69.7 ng/mL, the concentration at 0.5 h [10] was 100 ng/mL and the half-life [11] was 2.2 h. The Activity (Mus musculus [12]) was 11.7%, the Activity (Mus musculus [13]) was 9.1% and the AUC(0-t) [14] was 454 ng·h/mL. The solubility [15] was 1 µg/mL (≈ 1.04 µM), the concentration at 24 h [16] was 2.28 ng/mL and the AUC(0-inf) [17] was 454 ng·h/mL. For the same compound, the concentration at 1.5 h [18] was 90.4 ng/mL, the T/C (OS-RC-2 [19]) was 0.77% and the Activity (Mus musculus [20]) was 3.1%. For the same compound, the concentration at 8 h [21] was 16.3 ng/mL, the T/C (OS-RC-2 [22]) was 0.72% and the concentration at 3 h [23] was 64.3 ng/mL. For the same compound, the Activity (Mus musculus [24]) was “Non-Toxic”, the IC50 (PC-3) was 30.2 µM and the Activity (Mus musculus [25]) was 8.7%. It also gave a concentration at 1 h [26] of 99.2 ng/mL, an IC50 (HepG2) of 52.3 µM and an Activity (Mus musculus [27]) of 10.5%. It also gave an Activity (OS-RC-2 [28]) of 167.38 mm3, a concentration at 0.25 h [29] of 17.4 ng/mL and a Cmax [30] of 126 ng/mL. The Activity (Mus musculus [31]) was 8.2%, the T/C (OS-RC-2 [32]) was 0.69% and the concentration at 6 h [33] was 32.4 ng/mL. It also gave a Tmax [34] of 1.91 h, an Activity (Mus musculus [35]) of 2.7% and an Activity (OS-RC-2 [36]) of 0.4 g. The IC50 (MDA-MB-435) was 62.5 µM, the inhibition in vivo at 6 mg/kg (OS-RC-2 [37]) was 41.1% and the T/C (OS-RC-2 [38]) was 79%. It also gave a T/C (OS-RC-2 [39]) of 0.71% and an IC50 (NCI-H460) of 99.8 µM.
